# “And” between values parts separate entries of the source, which are not always exact repeats. Equal values may be shown once.
# Assays:
# [1] = test system: placental ABC transporters (placental IOVs); type: in vitro ADME, human; settings: for total ATP-dependent uptake by placental IOVs: 100 nM radiolabeled drug, 1 min, pool of 60 term placentas
# [2] = target: MRP1 (Homo sapiens, UniProt P33527); settings: placental IOVs
# [3] = test system: P-gp, BCRP, and MRP1; settings: 100 nM drug, 1 μM KO143, placental IOVs, 1 min
# [4] = target: T1, P-gp (Homo sapiens, UniProt P08183); assay: Inhibition of [3H]-rosiglitazone uptake by placental IOVs by cold metformin; type: in vitro ADME
# T1 sequence (P08183 whole entry): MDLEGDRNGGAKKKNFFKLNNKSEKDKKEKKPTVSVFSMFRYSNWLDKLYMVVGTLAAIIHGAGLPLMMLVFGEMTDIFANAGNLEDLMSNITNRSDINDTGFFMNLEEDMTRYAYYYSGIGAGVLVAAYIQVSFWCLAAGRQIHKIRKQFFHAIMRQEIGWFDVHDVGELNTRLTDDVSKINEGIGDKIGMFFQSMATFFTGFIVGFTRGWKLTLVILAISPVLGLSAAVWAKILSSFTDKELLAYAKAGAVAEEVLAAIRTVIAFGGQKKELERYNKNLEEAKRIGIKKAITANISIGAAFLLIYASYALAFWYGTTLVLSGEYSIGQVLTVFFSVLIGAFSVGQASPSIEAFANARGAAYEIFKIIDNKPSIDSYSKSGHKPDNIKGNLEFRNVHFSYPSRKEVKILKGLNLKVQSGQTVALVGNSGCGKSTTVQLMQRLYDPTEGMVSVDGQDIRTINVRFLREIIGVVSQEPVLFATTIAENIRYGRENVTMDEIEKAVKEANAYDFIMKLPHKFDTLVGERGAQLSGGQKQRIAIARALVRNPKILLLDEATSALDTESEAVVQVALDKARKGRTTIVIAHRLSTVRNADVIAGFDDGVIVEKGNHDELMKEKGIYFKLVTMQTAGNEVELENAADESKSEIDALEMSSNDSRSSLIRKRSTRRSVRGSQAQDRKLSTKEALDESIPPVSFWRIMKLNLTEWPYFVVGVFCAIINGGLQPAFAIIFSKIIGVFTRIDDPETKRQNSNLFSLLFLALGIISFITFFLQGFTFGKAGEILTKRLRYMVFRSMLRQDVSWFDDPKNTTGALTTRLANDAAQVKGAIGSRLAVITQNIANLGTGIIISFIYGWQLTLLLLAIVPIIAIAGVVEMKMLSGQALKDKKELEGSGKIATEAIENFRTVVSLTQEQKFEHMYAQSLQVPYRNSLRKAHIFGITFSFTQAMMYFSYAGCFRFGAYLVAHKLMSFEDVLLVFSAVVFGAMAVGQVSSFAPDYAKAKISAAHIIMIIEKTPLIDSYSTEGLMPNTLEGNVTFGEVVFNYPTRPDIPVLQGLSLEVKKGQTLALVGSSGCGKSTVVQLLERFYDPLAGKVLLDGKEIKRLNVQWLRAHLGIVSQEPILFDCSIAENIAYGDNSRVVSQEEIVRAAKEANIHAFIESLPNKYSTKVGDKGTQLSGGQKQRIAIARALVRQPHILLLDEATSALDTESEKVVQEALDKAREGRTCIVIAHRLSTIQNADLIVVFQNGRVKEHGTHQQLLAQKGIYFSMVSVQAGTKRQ
# [5] = target: T1, P-gp; settings: placental IOVs
# [6] = target: T2, BCRP (Homo sapiens, UniProt Q9UNQ0); settings: 100 nM drug, 25 nM KO143, placental IOVs, 1 min
# T2 sequence (Q9UNQ0 1-655): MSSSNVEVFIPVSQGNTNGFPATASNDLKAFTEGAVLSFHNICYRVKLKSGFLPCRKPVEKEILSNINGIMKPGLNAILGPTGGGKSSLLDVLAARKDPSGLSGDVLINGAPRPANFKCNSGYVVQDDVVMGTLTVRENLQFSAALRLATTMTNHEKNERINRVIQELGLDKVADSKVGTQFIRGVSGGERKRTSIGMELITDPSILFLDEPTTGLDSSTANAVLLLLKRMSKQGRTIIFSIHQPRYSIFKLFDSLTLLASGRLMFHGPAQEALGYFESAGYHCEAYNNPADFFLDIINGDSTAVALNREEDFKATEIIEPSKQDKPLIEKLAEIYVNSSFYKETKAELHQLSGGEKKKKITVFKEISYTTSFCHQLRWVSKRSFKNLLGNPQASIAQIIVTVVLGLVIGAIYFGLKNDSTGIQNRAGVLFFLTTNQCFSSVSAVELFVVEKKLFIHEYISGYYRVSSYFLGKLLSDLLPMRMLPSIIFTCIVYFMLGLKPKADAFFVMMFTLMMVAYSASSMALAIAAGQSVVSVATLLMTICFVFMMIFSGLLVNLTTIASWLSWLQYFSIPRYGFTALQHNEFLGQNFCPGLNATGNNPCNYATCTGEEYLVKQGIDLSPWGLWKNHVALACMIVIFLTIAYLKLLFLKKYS
# [7] = target: T1, P-gp; settings: placental brush border membrane vesicles; cited from earlier work
# [8] = 100 nM, ABC transporters examined
# MRP1, sequence (P33527 whole entry): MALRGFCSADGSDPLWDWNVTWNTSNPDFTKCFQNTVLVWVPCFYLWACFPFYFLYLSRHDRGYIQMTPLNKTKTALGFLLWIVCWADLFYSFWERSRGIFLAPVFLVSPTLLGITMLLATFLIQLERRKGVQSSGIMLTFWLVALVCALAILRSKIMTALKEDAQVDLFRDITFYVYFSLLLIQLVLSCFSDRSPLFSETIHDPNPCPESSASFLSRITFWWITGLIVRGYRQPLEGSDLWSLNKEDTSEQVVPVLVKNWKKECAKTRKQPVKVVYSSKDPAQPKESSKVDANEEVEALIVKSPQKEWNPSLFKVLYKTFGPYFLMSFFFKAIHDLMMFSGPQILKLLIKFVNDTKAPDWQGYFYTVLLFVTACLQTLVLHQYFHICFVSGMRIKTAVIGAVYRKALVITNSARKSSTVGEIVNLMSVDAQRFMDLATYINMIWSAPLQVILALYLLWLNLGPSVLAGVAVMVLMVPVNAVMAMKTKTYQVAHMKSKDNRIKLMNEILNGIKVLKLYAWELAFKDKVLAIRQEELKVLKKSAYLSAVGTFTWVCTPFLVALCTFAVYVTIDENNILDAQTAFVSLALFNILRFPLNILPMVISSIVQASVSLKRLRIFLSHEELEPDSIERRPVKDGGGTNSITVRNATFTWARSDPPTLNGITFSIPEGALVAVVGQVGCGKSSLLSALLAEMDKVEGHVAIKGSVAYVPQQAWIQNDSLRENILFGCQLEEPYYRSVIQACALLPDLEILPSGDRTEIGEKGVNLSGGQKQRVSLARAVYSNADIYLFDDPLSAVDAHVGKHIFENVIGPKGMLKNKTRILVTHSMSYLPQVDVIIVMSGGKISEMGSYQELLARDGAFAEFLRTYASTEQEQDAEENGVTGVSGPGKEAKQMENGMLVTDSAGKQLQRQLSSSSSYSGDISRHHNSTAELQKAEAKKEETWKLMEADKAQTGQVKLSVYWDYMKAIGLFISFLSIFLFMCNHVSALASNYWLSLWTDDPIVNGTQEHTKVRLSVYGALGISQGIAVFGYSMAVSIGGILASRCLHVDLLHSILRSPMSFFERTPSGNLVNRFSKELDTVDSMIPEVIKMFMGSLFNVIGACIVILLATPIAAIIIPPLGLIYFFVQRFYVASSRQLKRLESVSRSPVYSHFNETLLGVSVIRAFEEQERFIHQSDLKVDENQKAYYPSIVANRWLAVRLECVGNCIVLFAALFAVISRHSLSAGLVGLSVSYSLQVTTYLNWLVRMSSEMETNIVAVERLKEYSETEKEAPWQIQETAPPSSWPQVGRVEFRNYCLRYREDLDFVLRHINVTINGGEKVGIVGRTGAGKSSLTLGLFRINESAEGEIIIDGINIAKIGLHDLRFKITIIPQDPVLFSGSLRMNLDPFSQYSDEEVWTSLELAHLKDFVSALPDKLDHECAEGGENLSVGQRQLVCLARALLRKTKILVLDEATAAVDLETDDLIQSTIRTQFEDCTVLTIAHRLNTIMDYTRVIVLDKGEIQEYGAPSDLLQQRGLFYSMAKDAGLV
structure (smiles),measurement,setting,value
COc1ccc(Cl)cc1C(=O)NCCc1ccc(S(=O)(=O)NC(=O)NC2CCCCC2)cc1 [glyburide],total ATP-dependent uptake by placental IOVs,[1],3.2 ± 0.3 pmol/mg protein*min
same,apparent Kt of ATP-dependent transport by MRP1,[2],358 ± 195 nM
same,"decrease of uptake on total inhibition of P-gp, BCRP, and MRP1 using 1 μM KO143",[3],78 ± 4%
CN(C)C(=N)N=C(N)N [metformin],total ATP-dependent uptake by placental IOVs,[1],35 pmol/mg protein*min
same,fold greater total transport than glyburide,[1]; [8],10 fold
same,fold greater total transport than rosiglitazone,[1]; [8],30 fold
same,IC50,[4],~600 nM
same,inhibition at 1 min,"[4]; human, placental inside-out vesicles (IOVs), probe [3H]-rosiglitazone, 100 nM",69 ± 6%
same,decrease of uptake on inhibition of P-gp by verapamil (transport by P-gp),"[5]; 100 nM drug, 600 μM verapamil, 1 min",58 ± 20% and 58 ± 10%
same,apparent Kt of ATP-dependent transport by P-gp,[5],100 ± 85 nM
same,decrease of uptake on inhibition of BCRP by 25 nM KO143 (transport by BCRP),[6],25 ± 14% and 25 ± 8%
same,decrease of uptake on inhibition of MRP1 by indomethacin (transport by MRP1),"[2]; 100 nM drug, 100 μM indomethacin, 1 min",no effect
same,"decrease of uptake on total inhibition of P-gp, BCRP, and MRP1 using 1 μM KO143",[3],89 ± 6%
CC(=O)O[C@H]1C(=O)[C@@]2(C)[C@H]([C@H](OC(=O)c3ccccc3)[C@]3(O)C[C@H](OC(=O)[C@H](O)[C@@H](NC(=O)c4ccccc4)c4ccccc4)C(C)=C1C3(C)C)[C@]1(OC(C)=O)CO[C@@H]1C[C@@H]2O [paclitaxel],Kt of P-gp-mediated transport,[7],66 ± 38 nM
same,Vmax of P-gp-mediated transport,[7],20 ± 3 pmol/mg protein*min
CN(CCOc1ccc(CC2SC(=O)NC2=O)cc1)c1ccccn1 (stereo not shown) [rosiglitazone],total ATP-dependent uptake by placental IOVs,[1],1.2 ± 0.2 pmol/mg protein*min

# From publication PMC2848180 (American journal of obstetrics and gynecology, 2010)
